The results in this text go back to patent publication US20110130397A1, “PYRROLINONE COMPOUNDS AS INHIBITORS OF BACTERIAL PEPTIDYL TRNA HYDROLASE AND USES THEREOF” (priority 2006, published 2011).

SMILES strings stand for the structures.

Take `CCc1ccc2nc(N3C(=O)C(O)=C(C(=O)c4ccc(C)o4)C3c3ccccc3)sc2c1` (stereo not shown) [Compound 130]: the melting point was in the range of 204 to 206 °C.

Turning to `CCc1ccc2nc(N3C(=O)C(O)=C(C(=O)c4ccc(C)o4)C3c3ccc(F)cc3)sc2c1` (stereo not shown) [Compound 131], the melting point fell in the range of 222 to 225 °C. Regarding `CCc1ccc2nc(N3C(=O)C(O)=C(C(=O)c4ccc(C)o4)C3c3ccc(OC)cc3)sc2c1` (stereo not shown) [Compound 132], the melting point lay within 192 to 194 °C. Then `CCc1ccc2nc(N3C(=O)C(O)=C(C(=O)c4ccc(C)o4)C3c3ccc(Cl)cc3)sc2c1` (stereo not shown) [Compound 133], with 236 to 238 °C; and `CCc1ccc2nc(N3C(=O)C(O)=C(C(=O)c4ccc(C)o4)C3c3ccc(Cl)c(Cl)c3)sc2c1` (stereo not shown) [Compound 134], with 197 to 201 °C. For `CCc1ccc2nc(N3C(=O)C(O)=C(C(=O)c4ccc(C)o4)C3c3ccc(C(C)C)cc3)sc2c1` (stereo not shown) [Compound 135], the melting point lay in the range of 220 to 222 °C.

Regarding `CCc1ccc2nc(N3C(=O)C(O)=C(C(=O)c4ccc(C)o4)C3c3cccc(Cl)c3)sc2c1` (stereo not shown) [Compound 136], the melting point was in the range of 174 to 177 °C. Then `CCc1ccc2nc(N3C(=O)C(O)=C(C(=O)c4ccc(C)o4)C3c3ccc(C(F)(F)F)cc3)sc2c1` (stereo not shown) [Compound 137], with 138 to 140 °C; and `CCc1ccc2nc(N3C(=O)C(O)=C(C(=O)c4ccc(C)o4)C3c3ccccc3F)sc2c1` (stereo not shown) [Compound 138], with 165 to 169 °C; and `Cc1ccc(C(=O)C2=C(O)C(=O)N(c3nc4ccc(Cl)cc4s3)C2c2cccc([N+](=O)[O-])c2)o1` (stereo not shown) [Compound 139], with > 300 °C. `COc1ccc2nc(N3C(=O)C(O)=C(C(=O)c4ccc(C)o4)C3c3ccccc3F)sc2c1` (stereo not shown) [Compound 151] came in with a melting point of 268 to 269 °C. As for `Cc1ccc(C(=O)C2=C(O)C(=O)N(c3nc4ccc([N+](=O)[O-])cc4s3)C2c2ccccc2F)o1` (stereo not shown) [Compound 152], the figure is 255 to 257 °C; as for `COc1ccc2nc(N3C(=O)C(O)=C(C(=O)c4ccc(C)o4)C3c3ccco3)sc2c1` (stereo not shown) [Compound 153], 240 to 242 °C; as for `COC(=O)c1cccc(C2C(C(=O)c3ccc(C)o3)=C(O)C(=O)N2c2nc3ccc(OC)cc3s2)c1` (stereo not shown) [Compound 154], 250 to 252 °C. As for `COc1ccc2nc(N3C(=O)C(O)=C(C(=O)c4ccc(C)o4)C3c3cccc(O)c3)sc2c1` (stereo not shown) [Compound 155], the figure is 263 to 264 °C.

`COc1ccc2nc(N3C(=O)C(O)=C(C(=O)c4ccc(C)o4)C3c3ccc(OC)c(O)c3)sc2c1` (stereo not shown) [Compound 156] came in with a melting point of 241 to 242 °C. As for `COc1ccc2nc(N3C(=O)C(O)=C(C(=O)c4ccc(C)o4)C3c3ccccn3)sc2c1` (stereo not shown) [Compound 157], the figure is 240 to 241 °C; as for `COc1ccc2nc(N3C(=O)C(O)=C(C(=O)c4ccc(C)o4)C3c3cccnc3)sc2c1` (stereo not shown) [Compound 158], 291 to 292 °C. As for `CC(=O)c1sc(N2C(=O)C(O)=C(C(=O)c3ccc(C)o3)C2c2ccccc2F)nc1C` (stereo not shown) [Compound 159], the figure is 244 to 245 °C; as for `Cc1ccc(C(=O)C2=C(O)C(=O)N(c3nc4cc(Cl)ccc4o3)C2c2ccccc2F)o1` (stereo not shown) [Compound 160], 244 to 245 °C. As for `Cc1ccc(C(=O)C2=C(O)C(=O)N(c3ncc(C)s3)C2c2ccccc2F)o1` (stereo not shown) [Compound 161], the figure is 251 to 252 °C.

As for `Cc1ccc(C(=O)C2=C(O)C(=O)N(c3nc4c(O)ncnc4[nH]3)C2c2ccccc2F)o1` (stereo not shown) [Compound 162], the melting point was > 350 °C. As for `Cc1ccc(C(=O)C2=C(O)C(=O)N(c3nc4ccccc4s3)C2c2ccccc2F)o1` (stereo not shown) [Compound 163], the figure is 253 to 254 °C. Then `Cc1ccc(C(=O)C2=C(O)C(=O)N(Cc3nn[nH]n3)C2)o1` [Compound 178], with 233 to 234 °C; and `Cc1ccc(C(=O)C2=C(O)C(=O)N(c3nc4ccc(S(C)(=O)=O)cc4s3)C2C2CCCCC2)o1` (stereo not shown) [Compound 179], with 208 to 209 °C.

As for `Cc1ccc(C(=O)C2=C(O)C(=O)N(c3nc4ccc(S(C)(=O)=O)cc4s3)C2C2CCOC2)o1` (stereo not shown) [Compound 180], the melting point lay within 199 to 200 °C. `CCCCCC1C(C(=O)c2ccc(C)o2)=C(O)C(=O)N1c1nc2ccc(S(C)(=O)=O)cc2s1` (stereo not shown) [Compound 181] returned a melting point of 171 to 173 °C. In the case of `CCOc1ccc2nc(N3C(=O)C(O)=C(C(=O)c4ccc(C)o4)C3c3ccccc3)sc2c1` (stereo not shown) [Compound 182], the melting point lay within 247 to 248 °C. As for `CCOc1ccc2nc(N3C(=O)C(O)=C(C(=O)c4ccc(C)o4)C3c3ccccc3F)sc2c1` (stereo not shown) [Compound 183], the figure is 251 to 252 °C; as for `CCOc1ccc2nc(N3C(=O)C(O)=C(C(=O)c4ccc(C)o4)C3c3cccc([N+](=O)[O-])c3)sc2c1` (stereo not shown) [Compound 184], 256 to 257 °C; as for `CCOc1ccc2nc(N3C(=O)C(O)=C(C(=O)c4ccc(C)o4)C3C3CCCCC3)sc2c1` (stereo not shown) [Compound 185], 166 to 167 °C. As for `CCOc1ccc2nc(N3C(=O)C(O)=C(C(=O)c4ccc(C)o4)C3c3cccc(OCc4ccccc4)c3)sc2c1` (stereo not shown) [Compound 186], the figure is 214 to 215 °C; as for `CCCCOc1ccc(C2C(C(=O)c3ccc(C)o3)=C(O)C(=O)N2c2nc3ccc(OCC)cc3s2)cc1` (stereo not shown) [Compound 187], 191 to 192 °C. `Cc1ccc(C(=O)C2=C(O)C(=O)N(c3ncccn3)C2c2ccccc2F)o1` (stereo not shown) [Compound 188] displayed a melting point of 249 to 250 °C. In turn, `Cc1ccc(C(=O)C2=C(O)C(=O)N(c3ccncn3)C2c2ccccc2F)o1` (stereo not shown) [Compound 189] gave a melting point of 235 to 236 °C. Regarding `CCOc1ccc2nc(N3C(=O)C(O)=C(C(=O)c4ccc(C)o4)C3C3CCOC3)sc2c1` (stereo not shown) [Compound 190], the melting point fell in the range of 185 to 186 °C. Then `Cc1ccc(C(=O)C2=C(O)C(=O)N(c3ncnc4c3ncn4C3OC(CO)C(O)C3O)C2c2ccccc2F)o1` (stereo not shown) [Compound 217], with 106 to 109 °C; and `Cc1ccc(C(=O)C2=C(O)C(=O)N(c3ncnc4[nH]ncc34)C2c2ccccc2F)o1` (stereo not shown) [Compound 218], with 256 to 258 °C; and `Cc1ccc(C(=O)C2=C(O)C(=O)N(c3ncnc4[nH]cnc34)C2c2ccccc2F)o1` (stereo not shown) [Compound 219], with 170 to 173 °C. As for `CCOc1ccc2nc(N3C(=O)C(O)=C(C(=O)c4ccc(C)o4)C3c3cccc(C#N)c3)sc2c1` (stereo not shown) [Compound 220], the figure is 226 to 227 °C; as for `CCOc1ccc2nc(N3C(=O)C(O)=C(C(=O)c4ccc(C)o4)C3c3ccc(O)c(O)c3)sc2c1` (stereo not shown) [Compound 221], 259 to 260 °C. Then `CCOc1ccc2nc(N3C(=O)C(O)=C(C(=O)c4ccc(C)o4)C3c3cccc(F)c3)sc2c1` (stereo not shown) [Compound 222], with 248 to 249 °C. On to `CCOc1ccc2nc(N3C(=O)C(O)=C(C(=O)c4ccc(C)o4)C3c3cccc(O)c3)sc2c1` (stereo not shown) [Compound 223], for which the melting point was 254 to 255 °C. Then `Cc1ccc(C(=O)C2=C(O)C(=O)N(c3ncnc4[nH]cnc34)C2c2cccc([N+](=O)[O-])c2)o1` (stereo not shown) [Compound 224], with 266 to 267 °C. `Cc1ccc(C(=O)C2=C(O)C(=O)N(c3ncnc4[nH]ncc34)C2c2cccc([N+](=O)[O-])c2)o1` (stereo not shown) [Compound 225] came in with a melting point of 222 to 223 °C. As for `Cc1ccc(C(=O)C2=C(O)C(=O)N(c3nc4cccnc4s3)C2c2ccccc2F)o1` (stereo not shown) [Compound 245], the figure is 227 to 229 °C; as for `Cc1ccc(C(=O)C2=C(O)C(=O)N(c3nc4cccnc4s3)C2c2cccc(C#N)c2)o1` (stereo not shown) [Compound 246], 251 to 252 °C; as for `Cc1ccc(C(=O)C2=C(O)C(=O)N(c3nc4cccnc4s3)C2c2ccc3c(c2)OCO3)o1` (stereo not shown) [Compound 247], 248 to 249 °C.

Take `Cc1ccc(C(=O)C2=C(O)C(=O)N(c3nc4cccnc4s3)C2c2ccc(O)c(C(=O)O)c2)o1` (stereo not shown) [Compound 248]: the melting point was 243 to 245 °C.

`COC(=O)c1cccc(C2C(C(=O)c3ccc(C)o3)=C(O)C(=O)N2c2nc3cccnc3s2)c1` (stereo not shown) [Compound 249] came in with a melting point of 220 to 221 °C. Regarding `CCOc1ccc2nc(N3C(=O)C(O)=C(C(=O)c4ccc(C)o4)C3c3sc4ccccc4c3C)sc2c1` (stereo not shown) [Compound 250], the melting point was in the range of 227 to 228 °C. Then `CCOc1ccc2nc(N3C(=O)C(O)=C(C(=O)c4ccc(C)o4)C3c3ccc4c(c3)OCO4)sc2c1` (stereo not shown) [Compound 251], with 230 to 231 °C; and `CCOc1ccc2nc(N3C(=O)C(O)=C(C(=O)c4ccc(C)o4)C3c3ccc4ccccc4n3)sc2c1` (stereo not shown) [Compound 252], with 260 to 261 °C; and `CCOc1ccc2nc(N3C(=O)C(OC(C)=O)=C(C(=O)c4ccc(C)o4)C3c3ccc(OCCOC(C)=O)cc3)sc2c1` (stereo not shown) [Compound 253], with 114 to 115 °C. As for `CCOc1ccc2nc(N3C(=O)C(O)=C(C(=O)c4ccc(C)o4)C3c3ccc(O)c(C(=O)O)c3)sc2c1` (stereo not shown) [Compound 254], the figure is 251 to 252 °C; as for `CCOc1ccc2nc(N3C(=O)C(O)=C(C(=O)c4ccc(C)o4)C3c3cccc(C(=O)OC)c3)sc2c1` (stereo not shown) [Compound 255], 228 to 229 °C; as for `CCOc1ccc2nc(N3C(=O)C(O)=C(C(=O)c4ccc(C)o4)C3c3ccc(-c4cccc([N+](=O)[O-])c4)o3)sc2c1` (stereo not shown) [Compound 256], 187 to 188 °C.

On to `CCOc1ccc2nc(N3C(=O)C(O)=C(C(=O)c4ccc(C)o4)C3c3cccs3)sc2c1` (stereo not shown) [Compound 257], for which the melting point fell in the range of 235 to 236 °C. For `Cc1ccc(C(=O)C2=C(O)C(=O)N(c3nc(N4CCOCC4)c4nc[nH]c4n3)C2c2ccccc2)o1` (stereo not shown) [Compound 283], the melting point lay within 291 to 292 °C.

As for `Cc1ccc(C(=O)C2=C(O)C(=O)N(c3nc(N4CCOCC4)c4nc[nH]c4n3)C2c2cccc([N+](=O)[O-])c2)o1` (stereo not shown) [Compound 284], the melting point fell in the range of 280 to 282 °C.

In the case of `Cc1ccc(C(=O)C2=C(O)C(=O)N(c3nc(N4CCOCC4)c4nc[nH]c4n3)C2c2ccccc2F)o1` (stereo not shown) [Compound 285], the melting point lay in the range of 297 to 299 °C.

Usually melting point stands for the temperature of the solid-liquid transition.
